Results: US20120005765A1, “ANIMAL MODEL FOR PARKINSON'S DISEASE” (Saint Louis University, priority 2010, published 2012)
“Also recorded” adds a separate entry of the source. Like-named read-outs stand apart in the source and are kept apart here. Values belong to the molecule of their own block, whether it stands above or below them.

Key:
rats = assay: Rotational asymmetry after apomorphine; format: in vivo, rat; details: apomorphine 0.4 mg/kg, n=7
Description: (§1) Determination of DOPAL-induced Parkinson's disease-like behavior Injections of DOPAL or ALDH1A1 antisense oligo into rat SN. To determine if increased levels of DOPAL in SN produces a behavioral model of PD, 3 groups of rats were tested: unilateral SN injection of 4 μg DOPAL in 6 rats; unilateral SN injection of 0.56 μg antisense oligonucleotide (oligo) targeted to aldehyde dehydrogenase (ALDH1A1) mRNA, the DOPAL catabolic enzyme in 3 rats; 5 non-injected rats. After 5-7 weeks, rats were injected with apomorphine (0.4 mg/kg, subcutaneously) and rotational asymmetry determined in each group just prior to sacrifice. After the brains were fixed and sectioned, the SN, and forebrain were stained immunohistochemically for tyrosine hydroxylase immunoreactivity (THir). See Section 3.
Determination of rotational asymmetry. Rats first were injected subcutaneously with the dopamine agonist apomorphine (0.4 mg/kg) dissolved in 0.1 ascorbate saline solution. After waiting 5 min in their home cage, they were placed in a hemispheric rotation bowl 40 cm wide and 20 cm deep. Rotational behavior was then determined for 30 min and the number of ipsilateral and contralateral turns quantified by observation.
Rotational asymmetry was assessed to quantify the effect of unilateral depletions of striatal dopamine from disruptions of nigrostriatal circuitry. The rotational asymmetry behavior of rats (n=6) changed dramatically after injections with DOPAL (FIG. 5).
Behavioral asymmetry is considered the standard behavioral test for rodent models of Parkinson's disease. The column on the right is a summary of all the behaviors recorded in the rotational asymmetry test for all the rats ([…]).

ALDH1A1 = assay: Antisense inhibition of ALDH1A1 expression in rat substantia nigra, immunoblot; format: in vivo; details: 1 week or 2 weeks; for optical density of ALDH1A1 Western blot bands, ipsilateral vs contralateral: Unscan software
Description: Antisense inhibition of ALDH1A1 expression in rats.
The immunoreactive bands of the Western blot of FIG. 8 were analyzed by Unscan it soft ware (Silk Scientific) and their optical densities plotted in FIG. 9.

DA SN neurons = assay: TH and NeuN immunohistochemistry after ALDH1A1 antisense injections into substantia nigra; format: in vivo, rat
Description: as §1
An antisense compound was used to decrease expression of ALDH1A1, which is responsible for breaking down DOPAL within the neuronal cell body and its effects on dopamine SN neurons and behavior were examined (FIGS. 6, 7). Three unilateral injections (total 800 nl; 700 pg/nl) of an antisense compound oligonucleotide (SEQ ID NO: 1), directed against the enzyme ALDH1A1, and comprising a phosphorothioate backbone, were made into the substantia nigra nucleus of the rat. The injections were placed in the pars compacta portion of the substantia nigra, the subnucleus where most of the dopaminergic neurons are found.

PC12 cells = assay: DOPAL toxicity in vitro, viable PC12 cell count (trypan blue)
Description: Determination of DOPAL toxicity in vitro Toxicity experiments were essentially as described previously. PC12 cultures were initially expanded in T-75 flasks with 20 ml Dulbecco's Modified Eagle's Medium supplemented with 4.5 g/l glucose, 4 mM L-glutamine, 5% fetal calf serum, 10% horse serum, 1000 units/l penicillin, and 100 mg/l streptomycin. Cells were transferred to six well culture plates with 2 ml media and grown to 1.5×10^5 cells/well, treated with 50 ng/ml nerve growth factor (NGF), and maintained in NGF-containing media for 7 d prior to experimentation. The medium was changed every 2-3 d. […] During the experiments, the medium was replaced once a day. Cells were detached with buffered saline containing EDT A, centrifuged at 200×g and resuspended in trypan blue for counting of viable cells. […] DOPAL and other compounds were added as described in the description of the figure and examples. Data was analyzed by ANOVA.
DOPAL, as well as other physiologically metabolites and adducts, were added to PC12 cells in culture at concentrations that were physiologically relevant.

α-synuclein = α-synuclein (Homo sapiens, UniProt P37840); assay: DOPAL-triggered α-synuclein aggregation in test tube, Western blot; format: biochemical; details: AS 2 μM, 37° C., up to 4 h, DOPAL 1.5-1,500 μM
Description: Determination of DOPAL-triggered α-synuclein aggregation in vitro. Western blot of DOPAL-triggered AS aggregation in test tube experiments. DOPAL was dissolved in 1% benzyl alcohol, then diluted to a final concentration of 1.5-1,500 μM as described previously. AS (2 μM) was incubated at 37° C. in 20 μl of 100 mM tris-HCl buffer (pH 7.2) with or without DA, DOPAL, DOPAC, or homovanillic acid (HVA) for up to 4 h. The reaction was stopped by heating at 70° C. for 3 min in SDS buffer. The entire mixture was transferred to the appropriate gel (vide infra).
SDS-PAGE and immunoblotting. Ten micrograms of protein (estimated by Bio Rad protein reagent) was resolved by electrophoresis on 4-12% bis-tris gels run with MES SDS buffer, and 3-8% tris-acetate gels using tris-acetate running buffer. For immunoblotting, the protein was transferred to PVDF blotting membranes with […] pore size, blocked with 5% milk protein in tris buffered saline (TBS) containing 0.1% Tween 20, and incubated for 1 h with a AS 202 monoclonal antibody (1:2,500 dilution). Blots were washed five times with 5% milk protein in TBS and probed with horseradish peroxidase-conjugated anti-mouse secondary antibody (1:2,500). Blots were washed five times with TBS containing. 0.5% Tween 20 before detection with Super Signal (Pierce).
Western blot analysis was performed to analyze DOPAL-induced aggregation of α-synuclein (FIG. 1). […]

ALDH = details: Lamensdorf et al. 2000; cited from earlier work
[1] = Experiment 1, 66 μM, None 299 ± 19

Molecule: 5″-AGCAGACGATCTCTCTCCATT-3″ (DNA, backbone and methylation of C not given here) [Antisense 2, 21-base antisense oligonucleotide complementary to residues 313 to 333 of rat ALDH1A1 mRNA]
rotational asymmetry after unilateral antisense injection into SN (rats): dramatic shifts in its rotational preference
ALDH1A1 protein, ipsilateral injected side vs contralateral side, Western blot (ALDH1A1): Loss of ALDH1A1
ALDH1A1 protein, ipsilateral injected side vs contralateral side, Western blot (ALDH1A1; listed as antisense 2): loss of ALDH1A1 protein
optical density of ALDH1A1 Western blot bands, ipsilateral vs contralateral (ALDH1A1): loss of ALDH1A1

Molecule: 5″-TGCAGGGGAAGACATTGCTGGT-3″ [Antisense 1]
neurons immediately adjacent to the injection site, Neun immunostaining (DA SN neurons; case R2504): have died
intensity of TH staining in the injected SN (DA SN neurons; three unilateral injections, total 800 nl, 700 pg/nl): slightly less
dopaminergic projections to rostral brain / ventral striatum, TH immunostaining (DA SN neurons; three unilateral injections, total 800 nl, 700 pg/nl, 5 or 7 weeks, listed as SEQ ID NO: 1): dramatically reduced; also recorded: absent/decreased
rotational asymmetry after unilateral antisense injection into SN (rats): dramatic shifts in its rotational preference
ALDH1A1 protein, ipsilateral injected side vs contralateral side, Western blot (ALDH1A1): Loss of ALDH1A1
ALDH1A1 protein, ipsilateral injected side vs contralateral side, Western blot (ALDH1A1; listed as antisense 1): loss of ALDH1A1 protein
optical density of ALDH1A1 Western blot bands, ipsilateral vs contralateral (ALDH1A1): loss of ALDH1A1

aggregation of α-synuclein oligomers in vitro (α-synuclein): not
Molecule: NCCc1ccc(O)c(O)c1 [DA, dopamine]
toxic in vitro at physiological levels (PC12 cells): not
PC 12 cells/well × 103 (PC12 cells; rat, 66 μM): 329 ± 21 cells/well × 103

Molecule: O=C(O)Cc1ccc(O)c(O)c1 [DOPAC, 3,4-dihydroxyphenylacetic acid]
toxic in vitro at physiological levels (PC12 cells): not
PC 12 cells/well × 103 (PC12 cells; rat, 66 μM): 334 ± 10 cells/well × 103

Molecule: COc1cc(CC(=O)O)ccc1O [HVA, homovanillic acid]
PC 12 cells/well × 103 (PC12 cells; [1]): 322 ± 20 cells/well × 103
toxic in vitro at physiological levels (PC12 cells; PC12 cells in culture): not

Molecule: C=C(C)[C@H]1Cc2c(ccc3c2O[C@@H]2COc4cc(OC)c(OC)cc4[C@@H]2C3=O)O1 [Rotenone, rotenone]
PC 12 cells/well × 103 (PC12 cells; Experiment 2, 10 μM, None 143 ± 12): 127 ± 9 cells/well × 103

Molecule: Oc1ccc(CC2NCCc3cc(O)c(O)cc32)cc1O (stereo not shown) [Tetrahydropapaveroline]
PC 12 cells/well × 103 (PC12 cells; [1]): 346 ± 15 cells/well × 103
toxic in vitro at physiological levels (PC12 cells; PC12 cells in culture): not

Molecule: O=c1c(-c2ccc(O)cc2)coc2cc(O)ccc12 [daidzein]
inhibiting ALDH in PC-12 cells (ALDH): effective
